# Results from ChEMBL document CHEMBL1201862, “PubChem BioAssay data set” (2004).
# Several values for one entry are separate records, joined by “and”; a condition that tells them apart may be missing. Equal values may be shown once.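 Results reflect a 48-hour exposure of cells in 96-well plates to compound at five concentrations. GI50 is the concentration that inhibits growth by half.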 Activity calls are given as the source filed them. Cut-off read from the data, not from the text of the source: active = GI50 up to about 1.1 µM and inactive = higher.
# Key:
# Experiment in all cases: DTP human tumour cell line panel, 48 h
# [1] = test system: RXF 393
# [2] = test system: SK-OV-3
# [3] = test system: SF-295
# [4] = test system: MDA-MB-231
# [5] = test system: OVCAR-4
# [6] = test system: 786-0
# [7] = test system: EKVX
# [8] = test system: SNB-19
# [9] = test system: UACC-257
# [10] = test system: IGROV-1
# [11] = test system: DU-145
# [12] = test system: ACHN
# [13] = test system: A498
# [14] = test system: SF-268
# [15] = test system: Malme-3M
# [16] = test system: UO-31
# [17] = test system: OVCAR-5
# [18] = test system: HCC 2998
# [19] = test system: HT-29
# [20] = test system: BT-549
# [21] = test system: TK-10
# [22] = test system: SK-MEL-2
# [23] = test system: SK-MEL-28
# [24] = test system: PC-3
# [25] = test system: MCF7
# [26] = test system: UACC-62
# [27] = test system: SW-620
# [28] = test system: T47D
# [29] = test system: LOX IMVI
# [30] = test system: HCT-15
# [31] = test system: HOP-62
# [32] = test system: SK-MEL-5
# [33] = test system: HCT-116
# [34] = test system: MDA-MB-435
# [35] = test system: NCI-H522
# [36] = test system: SN12C
# [37] = test system: A549
# [38] = test system: HOP-92
# [39] = test system: K562
# [40] = test system: COLO 205
# [41] = test system: RPMI-8226
# [42] = test system: NCI/ADR-RES
# [43] = test system: M14
# [44] = test system: U-251
# [45] = test system: NCI-H226
# [46] = test system: CCRF-CEM
# [47] = test system: HL-60
# [48] = test system: NCI-H23
# [49] = test system: MDA-N
# [50] = test system: SF-539
# [51] = test system: KM12
# [52] = test system: OVCAR-8
# [53] = test system: CAKI-1
# [54] = test system: OVCAR-3
# [55] = test system: NCI-H460
# [56] = test system: MOLT-4
compound,measurement,setting,value
CC(C)=CCCC1(C)C2COC(=O)C21 (stereo unspecified),GI50,[1],> 100 µM (inactive)
same,GI50,[2],> 100 µM (inactive)
same,GI50,[3],> 100 µM (inactive) and 63.2 µM (inactive)
same,GI50,[4],> 100 µM (inactive)
same,GI50,[5],> 100 µM (inactive) and 80 µM (inactive)
same,GI50,[6],> 100 µM (inactive) and 63.2 µM (inactive)
same,GI50,[7],67.5 µM (inactive)
same,GI50,[8],> 100 µM (inactive)
same,GI50,[9],> 100 µM (inactive)
same,GI50,[10],53.7 µM (inactive)
same,GI50,[11],> 100 µM (inactive)
same,GI50,[12],> 100 µM (inactive) and 68.9 µM (inactive)
same,GI50,[13],> 100 µM (inactive)
same,GI50,[14],> 100 µM (inactive)
same,GI50,[15],> 100 µM (inactive)
same,GI50,[16],> 100 µM (inactive)
same,GI50,[17],> 100 µM (inactive)
same,GI50,[18],> 100 µM (inactive)
same,GI50,[19],> 100 µM (inactive)
same,GI50,[20],> 100 µM (inactive)
same,GI50,[21],> 100 µM (inactive)
same,GI50,[22],> 100 µM (inactive)
same,GI50,[23],> 100 µM (inactive)
same,GI50,[24],> 100 µM (inactive)
same,GI50,[25],31.3 µM (inactive) and 33.9 µM (inactive)
same,GI50,[26],> 100 µM (inactive)
same,GI50,[27],64.7 µM (inactive)
COC(=O)/C=C1\CCC(C)(C(=O)NS(=O)(=O)c2ccc(C)cc2)C1(C)C (stereo unspecified),GI50,[1],> 100 µM (inactive)
same,GI50,[2],> 100 µM (inactive)
same,GI50,[3],> 100 µM (inactive)
same,GI50,[28],> 100 µM (inactive)
same,GI50,[29],> 100 µM (inactive)
same,GI50,[4],> 100 µM (inactive)
same,GI50,[5],> 100 µM (inactive)
same,GI50,[30],> 100 µM
same,GI50,[31],> 100 µM (inactive)
same,GI50,[6],> 100 µM (inactive)
same,GI50,[32],> 100 µM (inactive)
same,GI50,[33],> 100 µM (inactive)
same,GI50,[34],4.48 µM (inactive)
same,GI50,[35],> 100 µM (inactive)
same,GI50,[7],> 100 µM (inactive)
same,GI50,[8],> 100 µM (inactive)
same,GI50,[9],> 100 µM (inactive)
same,GI50,[36],> 100 µM (inactive)
same,GI50,[37],> 100 µM (inactive)
same,GI50,[10],> 100 µM (inactive)
same,GI50,[38],> 100 µM (inactive)
same,GI50,[39],> 100 µM (inactive)
same,GI50,[11],> 100 µM (inactive)
same,GI50,[12],> 100 µM (inactive)
same,GI50,[40],> 100 µM (inactive)
same,GI50,[41],> 100 µM (inactive)
same,GI50,[42],> 100 µM (inactive)
same,GI50,[13],> 100 µM (inactive)
same,GI50,[43],> 100 µM (inactive)
same,GI50,[44],> 100 µM (inactive)
same,GI50,[14],> 100 µM (inactive)
same,GI50,[45],> 100 µM (inactive)
same,GI50,[46],> 100 µM (inactive)
same,GI50,[15],> 100 µM (inactive)
same,GI50,[16],> 100 µM (inactive)
same,GI50,[17],> 100 µM (inactive)
same,GI50,[18],> 100 µM (inactive)
same,GI50,[20],> 100 µM (inactive)
same,GI50,[47],> 100 µM (inactive)
same,GI50,[21],> 100 µM (inactive)
same,GI50,[22],> 100 µM (inactive)
same,GI50,[48],> 100 µM (inactive)
same,GI50,[49],> 100 µM (inactive)
same,GI50,[50],> 100 µM (inactive)
same,GI50,[51],> 100 µM (inactive)
same,GI50,[52],> 100 µM (inactive)
same,GI50,[53],> 100 µM (inactive)
same,GI50,[54],> 100 µM (inactive)
same,GI50,[55],> 100 µM (inactive)
same,GI50,[56],> 100 µM (inactive)
same,GI50,[24],> 100 µM (inactive)
same,GI50,[25],> 100 µM (inactive)
same,GI50,[26],> 100 µM (inactive)
same,GI50,[27],> 100 µM (inactive)
